Experimental data from patent US9302999B2, “Substituted triazoles as herbicides” (E. I. DU PONT DE NEMOURS AND COMPANY, priority 2012, dated 2016).

Tests used:
Assay type in all cases: in vivo
[1] = system: large crabgrass (Digitaria sanguinalis); assay: Test C pre-/postemergence: large crabgrass
Summary of the method: (§1)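 Visual injury scored 0–100 (100 = complete control) against untreated controls after 13–15 greenhouse days. Surfactant-containing solvent formulations applied either to soil after sowing (loam/sand) or over 1- to 4-leaf plants, 2–18 cm tall.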

[2] = system: galium (catchweed bedstraw, Galium aparine); assay: Test C pre-/postemergence: galium
Summary of the method: as §1

[3] = system: johnsongrass (Sorghum halepense); assay: Test C pre-/postemergence: johnsongrass
Summary of the method: as §1

[4] = system: wild oat (Avena fatua); assay: Test C pre-/postemergence: wild oat; settings: Postemergence
Summary of the method: as §1

[5] = system: ducksalad (Heteranthera limosa); assay: Test B flooded paddy: ducksalad; settings: Flood; 250 g ai/ha; applied to paddy water at 2-leaf stage; visually evaluated after 13 to 15 days
Summary of the method: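 Visual ratings (0 = no effect, 100 = complete control) versus untreated controls were taken 13–15 days after treatment of greenhouse plants. Treatment was added to paddy water held at 3 cm depth on 2-leaf-stage seedlings.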

[6] = system: ryegrass, Italian (Italian ryegrass, Lolium multiflorum); assay: Test C pre-/postemergence: ryegrass, Italian
Summary of the method: as §1

[7] = system: corn (Zea mays); assay: Test C pre-/postemergence: corn
Summary of the method: as §1

[8] = system: morningglory (Ipomoea coccinea); assay: Test C pre-/postemergence: morningglory
Summary of the method: as §1

[9] = system: foxtail, giant (giant foxtail, Setaria faberii); assay: Test C pre-/postemergence: foxtail, giant
Summary of the method: as §1

[10] = system: kochia (Kochia scoparia); assay: Test C pre-/postemergence: kochia; settings: Postemergence
Summary of the method: as §1

[11] = system: velvetleaf (Abutilon theophrasti); assay: Test C pre-/postemergence: velvetleaf
Summary of the method: as §1

[12] = Postemergence, 31 g ai/ha, scale 0 to 100 (0 no effect, 100 complete control)
[13] = Postemergence, 62 g ai/ha, scale 0 to 100 (0 no effect, 100 complete control)
[14] = Postemergence, 125 g ai/ha, scale 0 to 100, 0 no effect, 100 complete control
[15] = Postemergence, 250 g ai/ha, scale 0 to 100
[16] = Preemergence, 31 g ai/ha, scale of 0 to 100, 0 is no effect, 100 is complete control
[17] = Preemergence, 62 g ai/ha, scale of 0 to 100, 0 is no effect, 100 is complete control
[18] = Preemergence, 125 g ai/ha, scale 0 to 100, 0 no effect, 100 complete control
[19] = Preemergence, 250 g ai/ha, scale 0 to 100, 0 no effect, 100 complete control
[20] = 31 g ai/ha, scale 0 to 100 (0 no effect, 100 complete control)
[21] = 62 g ai/ha, scale 0 to 100 (0 no effect, 100 complete control)
[22] = 125 g ai/ha, scale 0 to 100, 0 no effect, 100 complete control

Cc1nn(-c2ccc(F)c(C(F)(F)F)c2)nc1Cc1ccnc(C(F)(F)F)c1 [Compound 156]
Plant response rating, Crabgrass, Large [1, 12]: 10
Plant response rating, Crabgrass, Large [1, 13]: 30
Plant response rating, Crabgrass, Large [1, 14]: 40
Plant response rating, Crabgrass, Large [1, 15]: 70
Plant response rating, Crabgrass, Large [1, 16]: 90
Plant response rating, Crabgrass, Large [1, 17]: 90
Plant response rating, Crabgrass, Large [1, 18]: 98
Plant response rating, Crabgrass, Large [1, 19]: 100
Plant response rating, Galium [2, 12]: 80
Plant response rating, Galium [2, 13]: 90
Plant response rating, Galium [2, 14]: 90
Plant response rating, Galium [2, 15]: 95
Plant response rating, Galium [2, 16]: 85
Plant response rating, Galium [2, 17]: 100
Plant response rating, Galium [2, 18]: 100
Plant response rating, Galium [2, 19]: 100
Plant response rating, Johnsongrass [3, 12]: 45
Plant response rating, Johnsongrass [3, 13]: 50
Plant response rating, Johnsongrass [3, 14]: 65
Plant response rating, Johnsongrass [3, 15]: 85
Plant response rating, Johnsongrass [3, 16]: 75
Plant response rating, Johnsongrass [3, 17]: 90
Plant response rating, Johnsongrass [3, 18]: 90
Plant response rating, Johnsongrass [3, 19]: 95
Plant response rating, Oat, Wild [4, 20]: 35
Plant response rating, Oat, Wild [4, 21]: 50
Plant response rating, Oat, Wild [4, 22]: 50
Plant response rating, Oat, Wild ([4]; 250 g ai/ha, scale 0 to 100): 70
Plant response rating, Ducksalad (0 to 100 scale, 0 is no effect, 100 is complete control) [5]: 90
Plant response rating, Ryegrass, Italian [6, 12]: 15
Plant response rating, Ryegrass, Italian [6, 13]: 35
Plant response rating, Ryegrass, Italian [6, 14]: 35
Plant response rating, Ryegrass, Italian [6, 15]: 70
Plant response rating, Ryegrass, Italian [6, 16]: 45
Plant response rating, Ryegrass, Italian [6, 17]: 80
Plant response rating, Ryegrass, Italian [6, 18]: 90
Plant response rating, Ryegrass, Italian [6, 19]: 90
Plant response rating, Corn [7, 13]: 15
Plant response rating, Corn [7, 14]: 25
Plant response rating, Corn [7, 15]: 30
Plant response rating, Corn [7, 16]: 5
Plant response rating, Corn [7, 17]: 5
Plant response rating, Corn [7, 18]: 10
Plant response rating, Corn [7, 19]: 30
Plant response rating, Morningglory [8, 12]: 65
Plant response rating, Morningglory [8, 13]: 70
Plant response rating, Morningglory [8, 14]: 75
Plant response rating, Morningglory [8, 15]: 100
Plant response rating, Morningglory [8, 16]: 5
Plant response rating, Morningglory [8, 17]: 10
Plant response rating, Morningglory [8, 18]: 10
Plant response rating, Morningglory [8, 19]: 30
Plant response rating, Foxtail, Giant [9, 12]: 10
Plant response rating, Foxtail, Giant [9, 13]: 15
Plant response rating, Foxtail, Giant [9, 14]: 25
Plant response rating, Foxtail, Giant [9, 15]: 50
Plant response rating, Foxtail, Giant [9, 16]: 90
Plant response rating, Foxtail, Giant [9, 17]: 90
Plant response rating, Foxtail, Giant [9, 18]: 90
Plant response rating, Foxtail, Giant [9, 19]: 95
Plant response rating, Kochia [10, 20]: 90
Plant response rating, Kochia [10, 21]: 90
Plant response rating, Kochia [10, 22]: 90
Plant response rating, Kochia ([10]; 250 g ai/ha, scale 0 to 100): 95
Plant response rating, Velvetleaf [11, 12]: 45
Plant response rating, Velvetleaf [11, 13]: 50
Plant response rating, Velvetleaf [11, 14]: 60
Plant response rating, Velvetleaf [11, 15]: 80
Plant response rating, Velvetleaf [11, 16]: 5
Plant response rating, Velvetleaf [11, 17]: 40
Plant response rating, Velvetleaf [11, 18]: 40
Plant response rating, Velvetleaf [11, 19]: 100
